Assay results: ChEMBL document CHEMBL3297653, “2-Amino-7-substituted benzoxazole analogs as potent RSK2 inhibitors” (Bioorg Med Chem Lett, 2014)
pEC50, pIC50: −log10 of the molar value.

How the values were obtained:
MDA-MB-231 = experiment: Cytotoxicity against human MDA-MB-231 cells assessed as growth inhibition after 5 days by CellTitre-glo assay; format: functional, cell-based; conditions: MDA-MB-231, 120 h
[1] = molecular target: Tyrosine-protein kinase JAK2 (Homo sapiens, UniProt O60674); experiment: Inhibition of JAK2 (unknown origin)
Aurora kinase A = molecular target: T1, Aurora kinase A (Homo sapiens, UniProt O14965); experiment: Inhibition of aurora A (unknown origin)
T1 sequence (O14965 whole entry): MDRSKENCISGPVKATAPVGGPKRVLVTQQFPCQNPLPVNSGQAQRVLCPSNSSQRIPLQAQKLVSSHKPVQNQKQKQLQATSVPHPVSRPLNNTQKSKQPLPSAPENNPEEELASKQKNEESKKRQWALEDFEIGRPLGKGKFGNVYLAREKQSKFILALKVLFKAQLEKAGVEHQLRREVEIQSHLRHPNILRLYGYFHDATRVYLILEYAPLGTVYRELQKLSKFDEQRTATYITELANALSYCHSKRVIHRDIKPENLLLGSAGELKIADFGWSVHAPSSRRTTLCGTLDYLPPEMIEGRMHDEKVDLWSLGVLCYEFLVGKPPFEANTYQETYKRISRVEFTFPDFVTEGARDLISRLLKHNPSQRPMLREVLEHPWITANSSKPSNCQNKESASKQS

Tyrosine-protein kinase JAK2, sequence (O60674 whole entry): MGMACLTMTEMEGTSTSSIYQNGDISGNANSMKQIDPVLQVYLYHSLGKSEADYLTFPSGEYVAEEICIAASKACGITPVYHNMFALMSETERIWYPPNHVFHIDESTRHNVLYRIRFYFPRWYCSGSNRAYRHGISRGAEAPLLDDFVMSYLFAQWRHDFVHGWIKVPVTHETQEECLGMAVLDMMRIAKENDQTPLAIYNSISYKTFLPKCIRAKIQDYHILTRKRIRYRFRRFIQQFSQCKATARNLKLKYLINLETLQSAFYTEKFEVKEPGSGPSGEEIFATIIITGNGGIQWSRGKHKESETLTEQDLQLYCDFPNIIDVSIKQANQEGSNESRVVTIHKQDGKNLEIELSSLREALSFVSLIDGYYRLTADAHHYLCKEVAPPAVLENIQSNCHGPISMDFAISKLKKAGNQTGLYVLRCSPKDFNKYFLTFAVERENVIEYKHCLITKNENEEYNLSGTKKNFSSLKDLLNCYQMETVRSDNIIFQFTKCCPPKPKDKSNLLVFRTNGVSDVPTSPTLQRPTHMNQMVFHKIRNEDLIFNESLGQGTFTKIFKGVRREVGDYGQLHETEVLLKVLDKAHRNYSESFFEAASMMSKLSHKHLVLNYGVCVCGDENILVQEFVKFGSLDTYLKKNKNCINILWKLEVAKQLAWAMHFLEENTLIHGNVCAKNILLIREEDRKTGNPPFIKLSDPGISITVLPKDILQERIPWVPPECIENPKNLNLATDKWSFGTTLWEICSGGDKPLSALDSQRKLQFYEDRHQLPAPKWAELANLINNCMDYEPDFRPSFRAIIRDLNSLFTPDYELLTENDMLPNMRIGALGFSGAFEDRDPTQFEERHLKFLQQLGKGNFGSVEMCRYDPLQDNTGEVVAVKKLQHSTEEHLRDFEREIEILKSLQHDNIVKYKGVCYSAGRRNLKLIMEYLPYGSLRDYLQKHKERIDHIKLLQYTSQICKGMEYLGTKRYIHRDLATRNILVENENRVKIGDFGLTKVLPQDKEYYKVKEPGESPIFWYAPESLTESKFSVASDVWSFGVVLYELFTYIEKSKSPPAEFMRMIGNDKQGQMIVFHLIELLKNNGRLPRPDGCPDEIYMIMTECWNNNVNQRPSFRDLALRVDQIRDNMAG

COc1cc(Nc2nc3cccc(-c4cccc5[nH]cnc45)c3o2)cc(OC)c1OC
pEC50 (MDA-MB-231): 6.24 | pIC50 [1]: 6.34 | pIC50 (Aurora kinase A): 6.22
